± gives the expanded uncertainty stated by the source.
Assay: molar heat capacity at constant volume
Conditions: Fluid (supercritical or subcritical phases), Vacuum adiabatic calorimetry

CC(C)O [propan-2-ol]
Conditions	molar heat capacity at constant volume [J/K/mol]
509.12 K, Mass density=288.99 kg/m3	208.89 ± 6.2
509.12 K, Mass density=293.3 kg/m3	205.89 ± 6.2
509.12 K, Mass density=324.5 kg/m3	193.27 ± 5.8
509.13 K, Mass density=255.8 kg/m3	235.45 ± 7.1
509.21 K, Mass density=234.3 kg/m3	205.65 ± 6.2
509.21 K, Mass density=266.3 kg/m3	238.7 ± 7.2
509.21 K, Mass density=274 kg/m3	233.71 ± 7
509.21 K, Mass density=281.9 kg/m3	212.8 ± 6.4
509.22 K, Mass density=293.3 kg/m3	199.52 ± 6
509.31 K, Mass density=234.3 kg/m3	202.04 ± 6.1
509.31 K, Mass density=255.8 kg/m3	218.33 ± 6.6
509.31 K, Mass density=266.3 kg/m3	229.68 ± 6.9
509.31 K, Mass density=274 kg/m3	224.45 ± 6.7
509.31 K, Mass density=281.9 kg/m3	208.17 ± 6.2
509.31 K, Mass density=293.3 kg/m3	198.91 ± 5.9
509.35 K, Mass density=329.2 kg/m3	179.56 ± 5.4
509.4 K, Mass density=234.3 kg/m3	198.61 ± 5.9
509.4 K, Mass density=255.8 kg/m3	215.14 ± 6.5
509.4 K, Mass density=274 kg/m3	219.83 ± 6.6
509.41 K, Mass density=281.9 kg/m3	208.71 ± 6.2
509.41 K, Mass density=293.3 kg/m3	198.91 ± 5.9
509.45 K, Mass density=329.2 kg/m3	180.16 ± 5.4
509.49 K, Mass density=234.3 kg/m3	198.97 ± 5.9
509.49 K, Mass density=255.8 kg/m3	213.4 ± 6.4
509.49 K, Mass density=266.3 kg/m3	223.31 ± 6.7
509.49 K, Mass density=274 kg/m3	219.83 ± 6.6
509.49 K, Mass density=281.9 kg/m3	204.98 ± 6.1
509.55 K, Mass density=329.2 kg/m3	178.84 ± 5.3
509.59 K, Mass density=234.3 kg/m3	196.21 ± 5.9
509.59 K, Mass density=255.8 kg/m3	210.09 ± 6.3
509.59 K, Mass density=266.3 kg/m3	219.59 ± 6.6
509.59 K, Mass density=274 kg/m3	215.2 ± 6.5
509.59 K, Mass density=324.5 kg/m3	183.83 ± 5.5
509.64 K, Mass density=329.2 kg/m3	179.98 ± 5.4
509.68 K, Mass density=234.3 kg/m3	196.87 ± 5.9
509.68 K, Mass density=255.8 kg/m3	209.01 ± 6.2
509.68 K, Mass density=266.3 kg/m3	217 ± 6.5
509.68 K, Mass density=274 kg/m3	213.04 ± 6.4
509.68 K, Mass density=324.5 kg/m3	191.16 ± 5.8
509.77 K, Mass density=234.3 kg/m3	196.09 ± 5.9
509.77 K, Mass density=255.8 kg/m3	206.37 ± 6.2
509.77 K, Mass density=266.3 kg/m3	209.67 ± 6.3
509.77 K, Mass density=274 kg/m3	213.04 ± 6.4
509.77 K, Mass density=324.5 kg/m3	189.06 ± 5.6
509.79 K, Mass density=329.2 kg/m3	177.46 ± 5.3
509.86 K, Mass density=234.3 kg/m3	195.79 ± 5.9
509.86 K, Mass density=255.8 kg/m3	204.2 ± 6.1
509.86 K, Mass density=266.3 kg/m3	209.67 ± 6.3
509.86 K, Mass density=274 kg/m3	208.41 ± 6.2
509.86 K, Mass density=293.3 kg/m3	194.17 ± 5.8
509.87 K, Mass density=324.5 kg/m3	183.23 ± 5.5
509.96 K, Mass density=255.8 kg/m3	202.1 ± 6.1
509.96 K, Mass density=266.3 kg/m3	209.67 ± 6.3
509.96 K, Mass density=274 kg/m3	204.8 ± 6.1
509.96 K, Mass density=281.9 kg/m3	202.4 ± 6.1
509.96 K, Mass density=293.3 kg/m3	192.18 ± 5.8
509.96 K, Mass density=324.5 kg/m3	187.5 ± 5.6
509.99 K, Mass density=329.2 kg/m3	177.28 ± 5.3
510.05 K, Mass density=255.8 kg/m3	200 ± 6
510.05 K, Mass density=266.3 kg/m3	209.73 ± 6.3
510.05 K, Mass density=274 kg/m3	203.84 ± 6.1
510.05 K, Mass density=281.9 kg/m3	206.97 ± 6.2
510.05 K, Mass density=293.3 kg/m3	195.37 ± 5.9
510.05 K, Mass density=324.5 kg/m3	181.31 ± 5.5
510.05 K, Mass density=343.1 kg/m3	174.7 ± 5.2
510.14 K, Mass density=255.8 kg/m3	198.91 ± 5.9
510.14 K, Mass density=266.3 kg/m3	211.53 ± 6.4
510.14 K, Mass density=274 kg/m3	203.36 ± 6.1
510.14 K, Mass density=281.9 kg/m3	197.95 ± 5.9
510.14 K, Mass density=293.3 kg/m3	191.4 ± 5.8
510.14 K, Mass density=324.5 kg/m3	187.92 ± 5.6
510.14 K, Mass density=329.2 kg/m3	178.12 ± 5.3
510.14 K, Mass density=343.1 kg/m3	178.42 ± 5.3
510.23 K, Mass density=329.2 kg/m3	177.94 ± 5.3
510.24 K, Mass density=274 kg/m3	204.02 ± 6.1
510.24 K, Mass density=281.9 kg/m3	197.95 ± 5.9
510.24 K, Mass density=293.3 kg/m3	198.43 ± 5.9
510.24 K, Mass density=324.5 kg/m3	181.85 ± 5.5
510.24 K, Mass density=343.1 kg/m3	185.87 ± 5.6
510.33 K, Mass density=274 kg/m3	202.52 ± 6.1
510.33 K, Mass density=281.9 kg/m3	193.45 ± 5.8
510.33 K, Mass density=293.3 kg/m3	191.1 ± 5.8
510.33 K, Mass density=324.5 kg/m3	181.73 ± 5.5
510.33 K, Mass density=329.2 kg/m3	176.68 ± 5.3
510.33 K, Mass density=343.1 kg/m3	182.15 ± 5.5
510.42 K, Mass density=274 kg/m3	204.68 ± 6.1
510.42 K, Mass density=281.9 kg/m3	198.01 ± 5.9
510.42 K, Mass density=293.3 kg/m3	187.02 ± 5.6
510.42 K, Mass density=324.5 kg/m3	183.05 ± 5.5
510.42 K, Mass density=343.1 kg/m3	178.48 ± 5.3
510.48 K, Mass density=329.2 kg/m3	178.6 ± 5.3
510.51 K, Mass density=281.9 kg/m3	193.69 ± 5.8
510.52 K, Mass density=293.3 kg/m3	192.91 ± 5.8
510.52 K, Mass density=343.1 kg/m3	174.76 ± 5.2
510.61 K, Mass density=281.9 kg/m3	198.13 ± 5.9
510.61 K, Mass density=293.3 kg/m3	186.78 ± 5.6
510.61 K, Mass density=343.1 kg/m3	182.21 ± 5.5
510.7 K, Mass density=281.9 kg/m3	193.39 ± 5.8
510.7 K, Mass density=343.1 kg/m3	185.93 ± 5.6
510.79 K, Mass density=281.9 kg/m3	196.69 ± 5.9
510.79 K, Mass density=343.1 kg/m3	177.04 ± 5.3
510.89 K, Mass density=281.9 kg/m3	193.39 ± 5.8
510.98 K, Mass density=281.9 kg/m3	188.88 ± 5.6
511.07 K, Mass density=281.9 kg/m3	188.94 ± 5.6
511.16 K, Mass density=281.9 kg/m3	193.51 ± 5.8
511.26 K, Mass density=281.9 kg/m3	188.94 ± 5.6
511.35 K, Mass density=281.9 kg/m3	192.78 ± 5.8
511.44 K, Mass density=281.9 kg/m3	189 ± 5.6
511.53 K, Mass density=281.9 kg/m3	191.7 ± 5.8
515.15 K, Mass density=293.3 kg/m3	182.39 ± 5.5
515.24 K, Mass density=293.3 kg/m3	178.06 ± 5.3
515.33 K, Mass density=293.3 kg/m3	182.39 ± 5.5
515.42 K, Mass density=293.3 kg/m3	173.67 ± 5.2
515.51 K, Mass density=293.3 kg/m3	178.06 ± 5.3
515.61 K, Mass density=293.3 kg/m3	173.73 ± 5.2
515.7 K, Mass density=293.3 kg/m3	178.12 ± 5.3
515.79 K, Mass density=293.3 kg/m3	185.39 ± 5.6
515.88 K, Mass density=293.3 kg/m3	178.12 ± 5.3
515.98 K, Mass density=234.3 kg/m3	168.75 ± 5
515.98 K, Mass density=293.3 kg/m3	174.52 ± 5.2
516.07 K, Mass density=234.3 kg/m3	174.22 ± 5.2
516.16 K, Mass density=234.3 kg/m3	168.75 ± 5
516.25 K, Mass density=234.3 kg/m3	163.28 ± 4.9
516.34 K, Mass density=234.3 kg/m3	174.28 ± 5.2
516.44 K, Mass density=234.3 kg/m3	163.88 ± 4.9
516.53 K, Mass density=234.3 kg/m3	168.81 ± 5
516.62 K, Mass density=234.3 kg/m3	168.87 ± 5
516.71 K, Mass density=234.3 kg/m3	163.4 ± 4.9
516.71 K, Mass density=281.9 kg/m3	181.31 ± 5.5
516.81 K, Mass density=234.3 kg/m3	168.87 ± 5
516.81 K, Mass density=281.9 kg/m3	181.31 ± 5.5
516.9 K, Mass density=234.3 kg/m3	168.87 ± 5
516.9 K, Mass density=281.9 kg/m3	176.74 ± 5.3
516.99 K, Mass density=281.9 kg/m3	176.8 ± 5.3
517.08 K, Mass density=281.9 kg/m3	185.87 ± 5.6
517.18 K, Mass density=281.9 kg/m3	176.8 ± 5.3
517.27 K, Mass density=281.9 kg/m3	181.19 ± 5.5
517.54 K, Mass density=274 kg/m3	189.48 ± 5.7
517.64 K, Mass density=274 kg/m3	184.79 ± 5.5
517.73 K, Mass density=274 kg/m3	180.04 ± 5.4
517.82 K, Mass density=274 kg/m3	183.77 ± 5.5
517.91 K, Mass density=274 kg/m3	180.1 ± 5.4
518 K, Mass density=274 kg/m3	187.14 ± 5.6
518.07 K, Mass density=274 kg/m3	180.1 ± 5.4
518.1 K, Mass density=274 kg/m3	183.35 ± 5.5
518.28 K, Mass density=274 kg/m3	181.73 ± 5.5
518.37 K, Mass density=274 kg/m3	182.81 ± 5.5
518.47 K, Mass density=255.8 kg/m3	166.04 ± 5
518.56 K, Mass density=255.8 kg/m3	167.12 ± 5
518.65 K, Mass density=255.8 kg/m3	169.05 ± 5.1
518.74 K, Mass density=255.8 kg/m3	166.34 ± 5
518.83 K, Mass density=255.8 kg/m3	165.14 ± 5
518.93 K, Mass density=255.8 kg/m3	167.97 ± 5
519.02 K, Mass density=255.8 kg/m3	165.14 ± 5
519.11 K, Mass density=255.8 kg/m3	170.19 ± 5.1
519.2 K, Mass density=255.8 kg/m3	165.2 ± 5
519.29 K, Mass density=255.8 kg/m3	166.64 ± 5
519.39 K, Mass density=255.8 kg/m3	168.99 ± 5
521.23 K, Mass density=293.3 kg/m3	170.43 ± 5.1
521.32 K, Mass density=293.3 kg/m3	170.43 ± 5.1
521.41 K, Mass density=293.3 kg/m3	170.43 ± 5.1
521.5 K, Mass density=293.3 kg/m3	161.66 ± 4.9
521.59 K, Mass density=293.3 kg/m3	174.88 ± 5.2
521.68 K, Mass density=293.3 kg/m3	170.49 ± 5.1
521.78 K, Mass density=293.3 kg/m3	166.34 ± 5
521.87 K, Mass density=281.9 kg/m3	173.13 ± 5.2
521.87 K, Mass density=293.3 kg/m3	169.71 ± 5.1
521.96 K, Mass density=281.9 kg/m3	168.57 ± 5
522.05 K, Mass density=281.9 kg/m3	173.19 ± 5.2
522.14 K, Mass density=281.9 kg/m3	173.19 ± 5.2
522.23 K, Mass density=281.9 kg/m3	173.19 ± 5.2
522.33 K, Mass density=281.9 kg/m3	168.63 ± 5
522.42 K, Mass density=281.9 kg/m3	171.63 ± 5.2
522.51 K, Mass density=281.9 kg/m3	173.25 ± 5.2
522.6 K, Mass density=281.9 kg/m3	168.69 ± 5
524.07 K, Mass density=274 kg/m3	171.75 ± 5.2
524.16 K, Mass density=274 kg/m3	171.75 ± 5.2
524.25 K, Mass density=274 kg/m3	176.5 ± 5.3
524.34 K, Mass density=274 kg/m3	176.5 ± 5.3
524.43 K, Mass density=274 kg/m3	176.56 ± 5.3
524.53 K, Mass density=274 kg/m3	171.81 ± 5.2
524.62 K, Mass density=274 kg/m3	176.56 ± 5.3
524.71 K, Mass density=274 kg/m3	167.12 ± 5
524.8 K, Mass density=274 kg/m3	171.87 ± 5.2

— the NIST ThermoML archive (doi:10.1016/j.jct.2019.03.023)
